Key:
Format in all cases: in vivo
[1] = system: Ambrosia elatior; experiment: greenhouse pre-emergence treatment, AMBEL; settings: Ambrosia artemisiifolia, 480 h, 20 DAT, AMBEL
Summary of the method: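 Seeds were sown per species in pots of loamy sand with about 3.0% humus, sprayed with the aqueous spray liquor directly after sowing, watered and hooded until rooted, then kept at 10-25° C. or 20-35° C. for 2 to 4 weeks. Damage was scored 0 (none) to 100 (no emergence/complete destruction).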

[2] = system: Ambrosia elatior; experiment: greenhouse post-emergence treatment, AMBEL; settings: Ambrosia artemisiifolia, 480 h, 20 DAT
Summary of the method: (§1)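 Visual herbicidal effect (0–100) recorded over a 2 to 4 week test period after foliar treatment at plant heights of 3 to 15 cm. Expected combination effects derived by the Colby formula from single-component effects X and Y.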

[3] = system: Lolium multiflorum; experiment: greenhouse post-emergence treatment, LOLMU; settings: Lolium multiflorum, 480 h, 20 DAT, read-out: % activity
Summary of the method: (§2)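 Seeds sown per species in loamy sand substrate (about 3.0% humus); some raised separately and transplanted shortly before treatment. Treatments applied in water post-emergence, plants held at 10-25° C. or 20-35° C. by species, then scored after 2 to 4 weeks, where 100 means total kill and 0 no damage.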

[4] = system: Setaria viridis; experiment: greenhouse post-emergence treatment, SETVI; settings: Setaria viridis, 480 h, 20 DAT; for inhibition at 500000 µg/mL (stock): sc, SETVI
Summary of the method: as §2

[5] = system: Bromus sterilis; experiment: greenhouse post-emergence treatment, BROST; settings: Bromus sterilis, 480 h, 20 DAT; for inhibition at 500000 µg/mL (stock): sc, BROST
Summary of the method: as §2

[6] = system: Papaver rhoeas; experiment: greenhouse post-emergence treatment, PAPRH; settings: Papaver rhoeas, 480 h, PAPRH, 20 DAT, solo flufenacet (SC 500 g/l) 250 gai/ha
Summary of the method: (§3)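 Seeds sown per species in pots of loamy sand; seedlings either grown in place or transplanted days before treatment. Post-emergence spray of water-based liquor at 3–15 cm height. Injury rated 0–100 over 2 to 4 weeks.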

[7] = system: Echinocloa crus-galli; experiment: greenhouse post-emergence treatment, ECHCG; settings: Echinochloa crus-galli, 480 h, 20 DAT, flufenacet solo 31.25 gai/ha
Summary of the method: as §3

[8] = system: Polygonum convolvulus; experiment: greenhouse post-emergence treatment, POLCO; settings: Fallopia convolvulus, 480 h, 20 DAT; for inhibition at 500000 µg/mL (stock): sc, POLCO
Summary of the method: as §3

[9] = system: Brachiaria decumbens; experiment: greenhouse post-emergence treatment, BRADC; settings: Urochloa decumbens, 480 h, 20 DAT; for inhibition at 500000 µg/mL (stock): sc, BRADC
Summary of the method: as §1

[10] = system: Digitaria sanguinalis; experiment: greenhouse post-emergence treatment, DIGSA; settings: Digitaria sanguinalis, 480 h, 20 DAT, read-out: % activity
Summary of the method: as §2

[11] = system: Poa annua; experiment: greenhouse post-emergence treatment, POAAN; settings: Poa annua, 480 h, 20 DAT, flufenacet solo 31.25 gai/ha
Summary of the method: as §1

[12] = solo flufenacet (SC 500 g/l) 62.5 gai/ha
[13] = solo flufenacet (SC 500 g/l) 125 gai/ha
[14] = solo flufenacet (SC 500 g/l) 250 gai/ha
[15] = solo flufenacet (SC 500 g/l) 31.25 gai/ha

CC(C)N(C(=O)COc1nnc(C(F)(F)F)s1)c1ccc(F)cc1 [flufenacet]
percent weed control (herbicidal activity, 0-100 scale) at 31.25 g/ha ([1]; flufenacet SC 500 g/l solo 31.25 gai/ha): 0% | percent weed control (herbicidal activity, 0-100 scale) at 62.5 g/ha ([1]; flufenacet SC 500 g/l solo 62.5 gai/ha, read-out: % activity): 0% | percent weed control (herbicidal activity, 0-100 scale) at 125 g/ha ([1]; flufenacet SC 500 g/l solo 125 gai/ha, read-out: % activity): 0% | inhibition at 62.5 g/ha ([2]; flufenacet solo 62.5 gai/ha): 0% | inhibition at 125 g/ha ([2]; flufenacet solo 125 gai/ha): 30% | inhibition at 250 g/ha ([2]; flufenacet solo 250 gai/ha): 70% | inhibition at 31.25 g/ha ([3]; flufenacet solo 31.25 gai/ha): 20% | inhibition at 62.5 g/ha ([3]; flufenacet solo 62.5 gai/ha): 50% | inhibition at 125 g/ha ([3]; flufenacet solo 125 gai/ha): 85% | inhibition at 250 g/ha ([3]; flufenacet solo 250 gai/ha): 85% | inhibition at 62.5 g/ha ([4]; flufenacet solo 62.5 gai/ha): 35% | inhibition at 125 g/ha ([4]; flufenacet solo 125 gai/ha): 55% | inhibition at 500000 µg/mL (stock) [4, 12]: 35% | inhibition at 500000 µg/mL (stock) [4, 13]: 55% | inhibition at 125 g/ha ([5]; flufenacet solo 125 gai/ha): 65% | inhibition at 250 g/ha ([5]; flufenacet solo 250 gai/ha): 80% | inhibition at 500000 µg/mL (stock) [5, 13]: 65% | inhibition at 500000 µg/mL (stock) [5, 14]: 80% | inhibition at 500000 µg/mL (stock) [6]: 0% | inhibition at 31.25 g/ha [7]: 25% | inhibition at 31.25 g/ha ([8]; flufenacet solo 31.25 gai/ha): 0% | inhibition at 62.5 g/ha ([8]; flufenacet solo 62.5 gai/ha): 30% | inhibition at 125 g/ha ([8]; flufenacet solo 125 gai/ha): 30% | inhibition at 500000 µg/mL (stock) [8, 15]: 0% | inhibition at 500000 µg/mL (stock) [8, 12]: 30% | inhibition at 500000 µg/mL (stock) [8, 13]: 30% | inhibition at 500000 µg/mL (stock) [8, 14]: 50% | inhibition at 31.25 g/ha ([9]; flufenacet solo 31.25 gai/ha): 0% | inhibition at 62.5 g/ha ([9]; flufenacet solo 62.5 gai/ha): 0% | inhibition at 125 g/ha ([9]; flufenacet solo 125 gai/ha): 0% | inhibition at 250 g/ha ([9]; flufenacet solo 250 gai/ha): 35% | inhibition at 500000 µg/mL (stock) [9, 15]: 0% | inhibition at 500000 µg/mL (stock) [9, 12]: 0% | inhibition at 500000 µg/mL (stock) [9, 13]: 0% | inhibition at 500000 µg/mL (stock) [9, 14]: 35% | inhibition at 62.5 g/ha ([10]; flufenacet solo 62.5 gai/ha): 10% | inhibition at 125 g/ha ([10]; flufenacet solo 125 gai/ha): 20% | inhibition at 250 g/ha ([10]; flufenacet solo 250 gai/ha): 65% | inhibition at 31.25 g/ha [11]: 70%
